# Laboratory results: ChEMBL document CHEMBL1201862, “PubChem BioAssay data set” (2004)
#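 Cells were grown in 96-well plates and exposed to each compound for 48 hours at five concentrations; endpoints were interpolated linearly between bracketing concentrations, or set to the highest concentration if not reached. GI50: concentration for 50% inhibition of growth.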 Calls of active or inactive are those of the source. Cut-off read from the data, not from the text of the source: active = GI50 up to about 1.1 µM and inactive = higher.
# Assays:
# Test in all cases: NCI tumour cell line growth inhibition, 48 h
# [1] = tested on: EKVX
# [2] = tested on: SW-620
# [3] = tested on: K562
# [4] = tested on: SN12C
# [5] = tested on: HOP-62
# [6] = tested on: RXF 393
# [7] = tested on: OVCAR-3
# [8] = tested on: SNB-19
# [9] = tested on: HL-60
# [10] = tested on: LOX IMVI
# [11] = tested on: MOLT-4
# [12] = tested on: CCRF-CEM
# [13] = tested on: A498
# [14] = tested on: RPMI-8226
# [15] = tested on: DMS-273
# [16] = tested on: DMS-114
# [17] = tested on: HOP-92
# [18] = tested on: NCI-H460
# [19] = tested on: HCC 2998
# [20] = tested on: HT-29
# [21] = tested on: UACC-257
# [22] = tested on: SF-268
# [23] = tested on: OVCAR-8
# [24] = tested on: HCT-15
# [25] = tested on: U-251
# [26] = tested on: SK-MEL-5
# [27] = tested on: ACHN
# [28] = tested on: LXFL 529
# [29] = tested on: NCI-H23
# [30] = tested on: UACC-62
# [31] = tested on: Malme-3M
# [32] = tested on: SNB-78
# [33] = tested on: KM-20L2
# [34] = tested on: 786-0
# [35] = tested on: KM12
# [36] = tested on: OVCAR-5
# [37] = tested on: SR
# [38] = tested on: HCT-116
# [39] = tested on: NCI-H522
# [40] = tested on: TK-10
# [41] = tested on: DLD-1
# [42] = tested on: SNB-75
# [43] = tested on: M19-MEL
# [44] = tested on: SK-MEL-28
# [45] = tested on: SK-MEL-2
# [46] = tested on: M14
# [47] = tested on: SF-295
# [48] = tested on: RXF 631
# [49] = tested on: SF-539
# [50] = tested on: XF498
# [51] = tested on: A549
# [52] = tested on: NCI-H226
# [53] = tested on: IGROV-1
# [54] = tested on: UO-31
# [55] = tested on: CAKI-1
# [56] = tested on: SK-OV-3
# [57] = tested on: OVCAR-4
# [58] = tested on: COLO 205
compound,measurement,setting,value
CC1=C(C(=O)Nc2ccccc2)C(c2ccc([N+](=O)[O-])cc2)C(C(=O)Nc2ccccc2)=C(C)N1,GI50,[1],21.5 µM (inactive)
same,GI50,[2],15.2 µM (inactive)
same,GI50,[3],15.4 µM (inactive)
same,GI50,[4],30.5 µM (inactive)
same,GI50,[5],39.1 µM (inactive)
same,GI50,[6],17.6 µM (inactive)
same,GI50,[7],21.7 µM (inactive)
same,GI50,[8],10.4 µM (inactive)
same,GI50,[9],13.1 µM (inactive)
same,GI50,[10],15.2 µM (inactive)
same,GI50,[11],7.05 µM (inactive)
same,GI50,[12],10.3 µM (inactive)
same,GI50,[13],26.2 µM (inactive)
same,GI50,[14],15.2 µM (inactive)
same,GI50,[15],24.4 µM (inactive)
same,GI50,[16],20.7 µM (inactive)
same,GI50,[17],17.9 µM (inactive)
same,GI50,[18],21.1 µM (inactive)
same,GI50,[19],20.2 µM (inactive)
same,GI50,[20],18.2 µM (inactive)
same,GI50,[21],18.5 µM (inactive)
same,GI50,[22],22.6 µM (inactive)
same,GI50,[23],17.3 µM (inactive)
same,GI50,[24],17.6 µM
same,GI50,[25],17.4 µM (inactive)
same,GI50,[26],24.1 µM (inactive)
same,GI50,[27],37 µM (inactive)
same,GI50,[28],17.4 µM (inactive)
same,GI50,[29],17 µM (inactive)
same,GI50,[30],12.2 µM (inactive)
same,GI50,[31],34.2 µM (inactive)
same,GI50,[32],33.8 µM (inactive)
same,GI50,[33],18.3 µM (inactive)
same,GI50,[34],19.8 µM (inactive)
same,GI50,[35],15.8 µM (inactive)
same,GI50,[36],40.9 µM (inactive)
same,GI50,[37],18.4 µM (inactive)
same,GI50,[38],18.5 µM (inactive)
same,GI50,[39],18.3 µM (inactive)
same,GI50,[40],28.7 µM (inactive)
same,GI50,[41],26.6 µM (inactive)
same,GI50,[42],26.6 µM (inactive)
same,GI50,[43],16.6 µM (inactive)
same,GI50,[44],31.5 µM (inactive)
same,GI50,[45],14.7 µM (inactive)
same,GI50,[46],18.1 µM (inactive)
same,GI50,[47],22.4 µM (inactive)
same,GI50,[48],21.2 µM (inactive)
same,GI50,[49],20.7 µM (inactive)
same,GI50,[50],15.1 µM (inactive)
same,GI50,[51],34 µM (inactive)
same,GI50,[52],59.6 µM (inactive)
same,GI50,[53],28.6 µM (inactive)
same,GI50,[54],22.4 µM (inactive)
OCCN(CCO)c1cccc(N(CCO)CCO)n1,GI50,[1],> 100 µM (inactive)
same,GI50,[2],> 100 µM (inactive)
same,GI50,[3],> 100 µM (inactive)
same,GI50,[4],> 10 µM (inactive)
same,GI50,[5],> 100 µM (inactive)
same,GI50,[6],> 100 µM (inactive)
same,GI50,[7],> 100 µM (inactive)
same,GI50,[55],> 100 µM (inactive)
same,GI50,[8],> 100 µM (inactive)
same,GI50,[9],> 100 µM (inactive)
same,GI50,[10],> 100 µM (inactive)
same,GI50,[11],> 100 µM (inactive)
same,GI50,[12],> 100 µM (inactive)
same,GI50,[13],> 100 µM (inactive)
same,GI50,[14],> 100 µM (inactive)
same,GI50,[15],> 100 µM (inactive)
same,GI50,[16],> 100 µM (inactive)
same,GI50,[17],> 100 µM (inactive)
same,GI50,[18],> 100 µM (inactive)
same,GI50,[19],> 10 µM (inactive)
same,GI50,[21],> 100 µM (inactive)
same,GI50,[22],> 100 µM (inactive)
same,GI50,[23],> 100 µM (inactive)
same,GI50,[24],> 100 µM
same,GI50,[25],> 100 µM (inactive)
same,GI50,[26],> 100 µM (inactive)
same,GI50,[27],> 100 µM (inactive)
same,GI50,[28],> 100 µM (inactive)
same,GI50,[56],> 100 µM (inactive)
same,GI50,[30],58.2 µM (inactive)
same,GI50,[32],> 100 µM (inactive)
same,GI50,[33],> 100 µM (inactive)
same,GI50,[57],> 100 µM (inactive)
same,GI50,[34],> 100 µM (inactive)
same,GI50,[35],> 100 µM (inactive)
same,GI50,[37],> 100 µM (inactive)
same,GI50,[38],> 100 µM (inactive)
same,GI50,[39],> 100 µM (inactive)
same,GI50,[40],> 100 µM (inactive)
same,GI50,[41],> 100 µM (inactive)
same,GI50,[42],> 100 µM (inactive)
same,GI50,[43],> 100 µM (inactive)
same,GI50,[58],> 100 µM (inactive)
same,GI50,[44],> 100 µM (inactive)
same,GI50,[45],> 100 µM (inactive)
same,GI50,[46],> 100 µM (inactive)
same,GI50,[47],> 100 µM (inactive)
same,GI50,[48],> 100 µM (inactive)
same,GI50,[50],27.7 µM (inactive)
same,GI50,[51],> 100 µM (inactive)
same,GI50,[54],> 100 µM (inactive)
CCN(CC)CC(C(=O)Nc1c(C)cccc1C)/C(C)=N/NC(N)=S (configuration not stated),GI50,[1],> 100 µM (inactive)
same,GI50,[2],> 100 µM (inactive)
same,GI50,[3],> 100 µM (inactive)
same,GI50,[5],> 100 µM (inactive)
same,GI50,[6],> 100 µM (inactive)
same,GI50,[7],> 100 µM (inactive)
same,GI50,[9],> 100 µM (inactive)
same,GI50,[10],> 100 µM (inactive)
same,GI50,[11],> 100 µM (inactive)
same,GI50,[12],> 100 µM (inactive)
same,GI50,[13],> 100 µM (inactive)
same,GI50,[14],> 100 µM (inactive)
same,GI50,[15],> 100 µM (inactive)
same,GI50,[16],> 100 µM (inactive)
same,GI50,[17],> 100 µM (inactive)
same,GI50,[18],> 100 µM (inactive)
same,GI50,[19],> 100 µM (inactive)
same,GI50,[20],> 100 µM (inactive)
same,GI50,[21],> 100 µM (inactive)
same,GI50,[22],> 100 µM (inactive)
same,GI50,[23],> 100 µM (inactive)
same,GI50,[25],> 100 µM (inactive)
same,GI50,[26],> 100 µM (inactive)
same,GI50,[27],> 100 µM (inactive)
same,GI50,[28],> 100 µM (inactive)
same,GI50,[29],> 100 µM (inactive)
same,GI50,[56],> 100 µM (inactive)
same,GI50,[30],> 100 µM (inactive)
same,GI50,[31],> 100 µM (inactive)
same,GI50,[32],> 100 µM (inactive)
same,GI50,[33],> 100 µM (inactive)
same,GI50,[34],> 100 µM (inactive)
same,GI50,[35],> 100 µM (inactive)
same,GI50,[36],> 100 µM (inactive)
same,GI50,[38],> 100 µM (inactive)
same,GI50,[39],> 100 µM (inactive)
same,GI50,[40],> 100 µM (inactive)
same,GI50,[41],> 100 µM (inactive)
same,GI50,[42],> 100 µM (inactive)
same,GI50,[43],> 100 µM (inactive)
same,GI50,[58],> 100 µM (inactive)
same,GI50,[44],> 100 µM (inactive)
same,GI50,[45],> 100 µM (inactive)
same,GI50,[46],> 100 µM (inactive)
same,GI50,[47],> 100 µM (inactive)
same,GI50,[48],> 100 µM (inactive)
same,GI50,[49],> 100 µM (inactive)
same,GI50,[50],> 100 µM (inactive)
same,GI50,[51],> 100 µM (inactive)
same,GI50,[52],> 100 µM (inactive)
same,GI50,[53],> 100 µM (inactive)
same,GI50,[54],> 100 µM (inactive)
